Tests used:
STEP = biological target: T1, STEP (Rattus norvegicus, UniProt P35234); experiment: STEP inhibition in neuronal cultures, Western blotting of phospho-substrates; assay type: cell-based; conditions: rat cortical neurons, 0.1, 1 or 10 µM for 1 h
T1 sequence (P35234 53-369 limits assumed): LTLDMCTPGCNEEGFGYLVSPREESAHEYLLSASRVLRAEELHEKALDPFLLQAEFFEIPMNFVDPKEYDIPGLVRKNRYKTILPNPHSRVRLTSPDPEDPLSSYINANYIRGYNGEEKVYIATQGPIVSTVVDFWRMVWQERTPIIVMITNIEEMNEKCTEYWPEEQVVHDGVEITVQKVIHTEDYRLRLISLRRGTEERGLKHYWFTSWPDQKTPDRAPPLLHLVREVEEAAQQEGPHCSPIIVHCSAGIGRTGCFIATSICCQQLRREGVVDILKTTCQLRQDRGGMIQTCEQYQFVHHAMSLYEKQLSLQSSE

MKP5 = biological target: T2, MKP5 (Homo sapiens, UniProt Q9Y6W6); experiment: Selectivity assay, DiFMUP substrate; assay type: biochemical; conditions: relative to STEP Ki
T2 sequence (Q9Y6W6 1-482): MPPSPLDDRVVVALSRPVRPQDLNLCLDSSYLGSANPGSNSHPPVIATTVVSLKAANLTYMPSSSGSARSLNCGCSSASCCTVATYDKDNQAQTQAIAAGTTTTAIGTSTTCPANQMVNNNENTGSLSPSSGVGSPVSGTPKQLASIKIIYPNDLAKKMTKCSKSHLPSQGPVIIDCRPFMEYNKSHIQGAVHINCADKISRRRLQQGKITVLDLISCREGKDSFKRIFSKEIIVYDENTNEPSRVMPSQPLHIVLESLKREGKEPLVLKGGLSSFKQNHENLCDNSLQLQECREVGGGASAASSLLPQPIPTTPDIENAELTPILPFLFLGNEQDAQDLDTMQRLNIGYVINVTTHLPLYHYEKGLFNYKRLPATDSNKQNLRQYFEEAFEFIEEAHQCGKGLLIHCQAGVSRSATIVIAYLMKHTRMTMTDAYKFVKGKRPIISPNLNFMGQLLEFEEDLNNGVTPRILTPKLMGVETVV

[1] = Solubility of the inhibitor; assay type: physicochemical; conditions: hydroxyl group at the benzylic position, compared with 12p
CD45 = biological target: T3, CD45 (Homo sapiens, UniProt P08575); experiment: Selectivity assay, pNPP substrate; assay type: biochemical; conditions: relative to STEP Ki
T3 sequence (P08575 26-1306): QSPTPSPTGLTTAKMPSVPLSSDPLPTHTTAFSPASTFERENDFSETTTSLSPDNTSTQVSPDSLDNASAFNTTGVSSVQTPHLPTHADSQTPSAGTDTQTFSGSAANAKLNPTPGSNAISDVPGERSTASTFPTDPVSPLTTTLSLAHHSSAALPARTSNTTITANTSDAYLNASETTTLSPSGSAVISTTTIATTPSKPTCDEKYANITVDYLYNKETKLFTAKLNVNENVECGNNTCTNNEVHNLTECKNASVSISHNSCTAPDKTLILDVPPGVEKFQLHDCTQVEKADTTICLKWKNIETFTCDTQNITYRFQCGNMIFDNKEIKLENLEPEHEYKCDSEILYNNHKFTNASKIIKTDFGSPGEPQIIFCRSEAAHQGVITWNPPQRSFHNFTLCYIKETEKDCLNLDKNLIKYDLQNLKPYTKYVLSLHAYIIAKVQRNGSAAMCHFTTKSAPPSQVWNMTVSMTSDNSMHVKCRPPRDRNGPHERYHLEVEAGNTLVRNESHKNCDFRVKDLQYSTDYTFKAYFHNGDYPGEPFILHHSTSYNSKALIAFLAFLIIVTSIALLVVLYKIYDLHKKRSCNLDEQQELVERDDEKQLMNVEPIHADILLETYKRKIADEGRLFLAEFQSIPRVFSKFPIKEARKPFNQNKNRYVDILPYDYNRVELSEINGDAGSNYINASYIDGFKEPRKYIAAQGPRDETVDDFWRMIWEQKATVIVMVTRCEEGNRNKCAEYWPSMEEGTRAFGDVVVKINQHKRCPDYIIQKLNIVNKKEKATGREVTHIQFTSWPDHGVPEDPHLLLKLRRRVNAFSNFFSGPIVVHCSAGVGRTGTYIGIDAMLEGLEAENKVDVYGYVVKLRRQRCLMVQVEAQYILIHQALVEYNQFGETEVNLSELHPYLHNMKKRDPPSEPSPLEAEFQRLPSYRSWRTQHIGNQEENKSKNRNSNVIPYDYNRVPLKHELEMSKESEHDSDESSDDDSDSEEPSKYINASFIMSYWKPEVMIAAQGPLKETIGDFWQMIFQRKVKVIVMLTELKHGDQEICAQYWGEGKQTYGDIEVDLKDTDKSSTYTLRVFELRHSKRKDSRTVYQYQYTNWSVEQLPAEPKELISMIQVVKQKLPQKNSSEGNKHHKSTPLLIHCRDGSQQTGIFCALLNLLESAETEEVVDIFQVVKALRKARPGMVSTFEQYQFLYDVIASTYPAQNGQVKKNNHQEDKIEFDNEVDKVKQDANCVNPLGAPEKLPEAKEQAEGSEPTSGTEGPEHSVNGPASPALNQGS

LAR = LAR (Homo sapiens, UniProt P10586); experiment: Selectivity assay, pNPP substrate; assay type: biochemical; conditions: relative to STEP Ki
Sequence of LAR (P10586 30-1907): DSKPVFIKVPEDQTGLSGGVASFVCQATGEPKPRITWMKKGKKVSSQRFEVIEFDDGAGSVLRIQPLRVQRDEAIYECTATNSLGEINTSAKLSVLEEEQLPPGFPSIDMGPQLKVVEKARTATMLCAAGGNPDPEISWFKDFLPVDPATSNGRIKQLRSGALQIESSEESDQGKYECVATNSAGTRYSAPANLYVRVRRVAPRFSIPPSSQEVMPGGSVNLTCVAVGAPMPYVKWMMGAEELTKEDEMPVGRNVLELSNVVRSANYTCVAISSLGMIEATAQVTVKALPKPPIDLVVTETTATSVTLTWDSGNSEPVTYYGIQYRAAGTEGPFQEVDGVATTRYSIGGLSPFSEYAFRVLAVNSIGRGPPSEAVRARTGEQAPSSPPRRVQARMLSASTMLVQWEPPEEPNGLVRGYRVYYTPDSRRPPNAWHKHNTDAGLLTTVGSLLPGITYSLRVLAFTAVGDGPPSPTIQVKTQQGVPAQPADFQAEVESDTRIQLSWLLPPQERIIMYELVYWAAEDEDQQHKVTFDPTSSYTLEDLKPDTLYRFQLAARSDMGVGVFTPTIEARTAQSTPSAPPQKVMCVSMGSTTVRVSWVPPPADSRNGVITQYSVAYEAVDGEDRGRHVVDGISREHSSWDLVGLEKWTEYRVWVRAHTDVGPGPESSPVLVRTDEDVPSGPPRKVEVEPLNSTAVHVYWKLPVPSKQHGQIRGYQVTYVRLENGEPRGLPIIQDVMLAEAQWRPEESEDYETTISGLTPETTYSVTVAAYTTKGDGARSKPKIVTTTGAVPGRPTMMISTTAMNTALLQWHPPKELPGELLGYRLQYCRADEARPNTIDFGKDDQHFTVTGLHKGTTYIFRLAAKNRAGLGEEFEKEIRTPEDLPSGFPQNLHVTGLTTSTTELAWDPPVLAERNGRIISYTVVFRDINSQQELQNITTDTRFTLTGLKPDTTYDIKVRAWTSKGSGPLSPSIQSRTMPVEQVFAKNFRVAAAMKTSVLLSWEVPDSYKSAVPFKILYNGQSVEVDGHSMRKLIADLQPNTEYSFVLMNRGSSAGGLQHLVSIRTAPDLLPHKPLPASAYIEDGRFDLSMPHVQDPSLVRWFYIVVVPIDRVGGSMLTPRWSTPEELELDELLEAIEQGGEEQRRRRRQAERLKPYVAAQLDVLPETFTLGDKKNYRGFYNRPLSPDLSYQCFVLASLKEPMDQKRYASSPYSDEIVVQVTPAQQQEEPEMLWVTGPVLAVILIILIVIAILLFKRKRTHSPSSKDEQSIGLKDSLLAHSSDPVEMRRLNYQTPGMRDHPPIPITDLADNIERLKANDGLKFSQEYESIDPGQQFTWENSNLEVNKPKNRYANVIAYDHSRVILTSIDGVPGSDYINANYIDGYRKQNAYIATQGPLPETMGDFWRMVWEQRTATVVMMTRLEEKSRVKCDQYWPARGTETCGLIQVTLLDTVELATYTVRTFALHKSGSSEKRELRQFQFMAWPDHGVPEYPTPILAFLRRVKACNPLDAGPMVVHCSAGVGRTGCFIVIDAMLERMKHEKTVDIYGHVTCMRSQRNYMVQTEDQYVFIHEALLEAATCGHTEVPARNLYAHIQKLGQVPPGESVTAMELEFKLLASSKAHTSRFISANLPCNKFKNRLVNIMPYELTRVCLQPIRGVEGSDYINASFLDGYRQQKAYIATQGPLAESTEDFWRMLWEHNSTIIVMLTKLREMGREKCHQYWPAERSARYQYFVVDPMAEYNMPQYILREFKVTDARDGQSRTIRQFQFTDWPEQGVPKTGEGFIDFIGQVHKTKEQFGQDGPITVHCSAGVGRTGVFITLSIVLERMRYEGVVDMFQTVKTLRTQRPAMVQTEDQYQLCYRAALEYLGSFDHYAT

BBB PAMPA = assay type: in vitro ADME; conditions: PAMPA model system; data in SI

Compound: O=P(O)(O)[C@H](O)c1ccc(-c2cccc([C@H](O)c3ccc(Cl)c(Cl)c3)c2)cc1 [12t, ((S)-(3'-((S)-(3,4-dichlorophenyl)(hydroxy)methyl)-[1,1'-biphenyl]-4-yl)(hydroxy)methyl)phosphonic Acid]
- phosphorylation levels of STEP substrates GluN2B, Pyk2 and ERK1/2 (STEP): more modest effects
- selectivity MKP5 (MKP5): >65

Compound: O=P(O)(O)C(F)(F)c1ccc(-c2cccc(C(O)c3ccc(Cl)c(Cl)c3)c2)cc1 (stereo not shown) [12q, ((3'-((3,4-Dichlorophenyl)(hydroxy)methyl)-[1,1'-biphenyl]-4-yl)difluoromethyl)phosphonic Acid]
- solubility of the inhibitor [1]: increased the solubility

Compound: O=P(O)(O)C(F)(F)c1cccc(-c2cccc(C3CCCCC3)c2O)c1 [11m, ((3'-Cyclohexyl-2'-hydroxy-[1,1'-biphenyl]-3-yl)difluoromethyl)phosphonic Acid]
- selectivity CD45 (CD45): >25
- selectivity LAR (LAR): >45

Compound: O=P(O)(O)[C@H](O)c1ccc(-c2cccc([C@@H](O)c3ccc(Cl)c(Cl)c3)c2)cc1 [12s, ((S)-(3'-((R)-(3,4-dichlorophenyl)(hydroxy)methyl)-[1,1'-biphenyl]-4-yl)(hydroxy)methyl)phosphonic Acid]
- phosphorylation levels of STEP substrates GluN2B, Pyk2 and ERK1/2 (STEP): Clear increases in the phosphorylation levels
- ability to passively permeate the blood-brain barrier (BBB PAMPA): did not possess the ability to passively cross the BBB

— paper PMC3875168 (Journal of medicinal chemistry, 2013)
